Data as given in ChEMBL document CHEMBL1150689, “New dihydroalkylhexenones from Lannea edulis” (J Nat Prod, 2003).
Activity calls are given as the source filed them. No cut-off for these calls is given here.

Test: DPPH radical scavenging activity at 10 ug after 30 mins by TLC
Format: functional

| SMILES | Activity |
| --- | --- |
| CC/C=C/CCCCCCCCCCCCC[C@@]1(O)CC(=O)C=C[C@@H]1O | inactive |
| CC/C=C/CCCCCCCCCCCCCCC[C@@]1(O)CC(=O)C=C[C@@H]1O | inactive |
| CC/C=C/CCCCCCCCCCCCCCC[C@]1(O)CC(=O)C=C[C@@H]1O | inactive |
| CC/C=C/CCCCCCCCCCCCCc1cccc(O)c1 | Active |
